Data set [1] is described as follows: Fluorescence emission maximum (Em. max) of the fluorochrome in solvent. The data set is classed as physicochemical.
The nature of data set [2]: Absorption maximum (Abs. max) of the fluorochrome in solvent. It counts as physicochemical.

Our source for the Em. max and Abs. max values is patent US9365721B2, “Polycyclo dyes and use thereof” (VISEN MEDICAL, INC., priority 2007, dated 2016).

Each structure is given as a SMILES string.

With `CN1C2CCC1/C(=C\C=C1\N(CCCS(=O)(=O)O)c3ccc(S(=O)(=O)O)cc3C1(C)C)C(SCCC(=O)O)=C2/C=C/C1=[N+](CCCS(=O)(=O)O)c2ccc(S(=O)(=O)O)cc2C1(C)C` (centres unmarked) [Compound 13], the results for the Em. max in data set [1] (MeOH) and in data set [1] (water) were 810 nm and 797 nm, respectively. The values for the Abs. max in data set [2] (MeOH) and in data set [2] (water) were 788 nm and 777 nm, respectively.
On to `CN1C2CCC1/C(=C\C=C1\N(CCCCS(=O)(=O)O)c3ccccc3C1(C)C)C(Cl)=C2/C=C/C1=[N+](CCCCS(=O)(=O)O)c2ccccc2C1(C)C` (centres unmarked) [Compound 11], for which the Em. max in data set [1] (MeOH) was 790 nm; in data set [1] (water) it was 775 nm. Besides, the Abs. max in data set [2] (MeOH) is 770 nm; in data set [2] (water), 760 nm.
With `CN1C2CCC1/C(=C\C=C1\N(CCCS(=O)(=O)O)c3ccc(S(=O)(=O)O)cc3C1(C)C)C(Cl)=C2/C=C/C1=[N+](CCCS(=O)(=O)O)c2ccc(S(=O)(=O)O)cc2C1(C)C` (centres unmarked) [Compound 39], the Em. max is given as 802 nm in data set [1] (MeOH) and 788 nm in data set [1] (water). For the same compound, the Abs. max is 780 nm in data set [2] (MeOH) and 768 nm in data set [2] (water).
As to `CN1C2CCC1/C(=C\C=C1\N(CCCCS(=O)(=O)O)c3ccccc3C1(C)C)C(SCCC(=O)O)=C2/C=C/C1=[N+](CCCCS(=O)(=O)O)c2ccccc2C1(C)C` (centres unmarked) [Compound 12], the figures for the Em. max in data set [1] (MeOH) and in data set [1] (water) were 810 nm and 787 nm, respectively. Moreover, the Abs. max in data set [2] (MeOH) was determined as 780 nm; in data set [2] (water), 768 nm.
Regarding `CCN1/C(=C/C=C2C(Cl)=C(/C=C/C3=[N+](CC)c4ccc5c(S(=O)(=O)O)cc(S(=O)(=O)O)cc5c4C3(C)C)C3CCC/2N3C)C(C)(C)c2c1ccc1c(S(=O)(=O)O)cc(S(=O)(=O)O)cc21` (centres unmarked) [Compound 38], the figures for the Em. max in data set [1] (MeOH) and in data set [1] (water) were 835 nm and 827 nm, respectively. Also, the results for the Abs. max in data set [2] (MeOH) and in data set [2] (water) were 814 nm and 805 nm, respectively.
